In ChEMBL document CHEMBL1201862, “PubChem BioAssay data set” (2004):
Active and inactive are the calls of the source.

Legend:
[1] = MC4R antagonists, dose response, counter-screen for LGR2 antagonist project, cell-based, plate reader, cherry pick (AID 743444); format: functional;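 note: transfected HEK 293 cells stimulated with alpha-MSH peptide; potency of inhibitors of the alpha-MSH evoked signal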
[2] = HEK293 cell cytotoxicity, dose response, cytotoxicity control, plate reader, cherry-picked samples (AID 743446); format: functional, cell-based
[3] = A549 cell cytotoxicity, dose response, cytotoxicity control, plate reader, cherry-pick, antagonist series (AID 743412); format: functional, cell-based
[4] = HepG2 cell cytotoxicity, dose response, cytotoxicity control, plate reader, cherry-pick, antagonist series (AID 743416); format: functional, cell-based
[5] = LGR2 antagonists, dose response, cell-based, HEK293, CRE-luciferase reporter, cherry pick (AID 743342); format: functional
[6] = IGROV1 ovarian cancer cell cytotoxicity, dose response, PAX8 inhibitor project, plate reader, dry powder samples (AID 743043); format: functional, cell-based; settings: IGROV-1
[7] = NIH:OVCAR-3 ovarian cancer cell cytotoxicity, dose response, PAX8 inhibitor project, plate reader, dry powder samples (AID 743044); format: functional, cell-based
[8] = IOSE-T80 ovarian epithelial cell cytotoxicity, dose response, cytotoxicity control for PAX8 inhibitor project, plate reader, dry powder samples (AID 743045); format: functional, cell-based
Paired box protein Pax-8 = Paired box protein Pax-8 (Homo sapiens, UniProt Q06710); experiment: inhibitors of PAX8-driven TPO luciferase reporter, dose response, RMG-I cells, cherry-pick (AID 687027); format: functional, cell-based;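 note: luciferase reporter driven by Pax8 target thyroperoxidase promoter measured by SteadyGlo luminescence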
Chain of Paired box protein Pax-8 (Q06710 whole entry): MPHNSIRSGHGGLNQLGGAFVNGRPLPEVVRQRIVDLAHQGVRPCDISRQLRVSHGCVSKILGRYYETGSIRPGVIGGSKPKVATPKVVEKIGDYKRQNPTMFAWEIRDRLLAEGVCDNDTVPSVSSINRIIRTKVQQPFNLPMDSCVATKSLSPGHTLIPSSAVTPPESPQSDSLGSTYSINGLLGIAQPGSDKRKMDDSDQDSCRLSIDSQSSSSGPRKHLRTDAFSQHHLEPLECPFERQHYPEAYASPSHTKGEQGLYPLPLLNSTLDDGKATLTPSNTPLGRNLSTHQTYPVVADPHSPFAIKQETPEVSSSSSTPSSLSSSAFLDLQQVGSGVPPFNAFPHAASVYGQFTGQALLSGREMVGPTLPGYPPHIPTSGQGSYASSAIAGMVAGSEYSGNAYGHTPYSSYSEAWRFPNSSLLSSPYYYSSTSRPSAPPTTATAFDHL

[9] = cytotoxicity in OVCAR8 ovarian cancer cells, dose response, PAX8 project, cell-based, plate reader, dry powder samples (AID 743197); format: functional; settings: OVCAR-8
[10] = A2780 ovarian cancer cell cytotoxicity, dose response, cytotoxicity control, plate reader, dry powder samples (AID 743046); format: functional, cell-based
fMet-Leu-Phe receptor = fMet-Leu-Phe receptor (Homo sapiens, UniProt P21462); experiment: FPR ligands, dose response (AID 519); format: functional
Chain of fMet-Leu-Phe receptor (P21462 whole entry): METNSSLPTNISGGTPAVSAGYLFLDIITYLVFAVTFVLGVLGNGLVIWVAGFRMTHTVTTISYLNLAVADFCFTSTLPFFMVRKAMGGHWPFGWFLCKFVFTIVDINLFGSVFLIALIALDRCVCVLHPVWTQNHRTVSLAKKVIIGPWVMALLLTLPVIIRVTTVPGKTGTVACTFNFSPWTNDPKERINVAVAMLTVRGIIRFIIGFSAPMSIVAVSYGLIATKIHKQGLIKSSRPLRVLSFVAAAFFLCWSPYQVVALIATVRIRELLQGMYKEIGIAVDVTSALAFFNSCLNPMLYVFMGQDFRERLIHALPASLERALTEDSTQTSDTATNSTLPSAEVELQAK

[11] = human group III sPLA2 inhibitors, dose response, biochemical, QFRET, IC50 (AID 743457);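 note: green fluorescence rise as the enzyme cleaves BODIPY PC-A2 in liposomes; potency for inhibition of the enzyme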
HEK293 [12] = experiment: cells; settings: Homo sapiens
Protein RecA = biological target: T1, Protein RecA (Mycobacterium tuberculosis, UniProt P9WHJ3); experiment: Fluorescence Cell-Free Homogeneous Dose Retest to Identify Inhibitors of RecA-Intein Splicing Activity. [Related pubchem assays (depositor defined):AID2097, AID2223, AID489010, AID492950]; format: functional
T1 sequence (P9WHJ3 whole entry): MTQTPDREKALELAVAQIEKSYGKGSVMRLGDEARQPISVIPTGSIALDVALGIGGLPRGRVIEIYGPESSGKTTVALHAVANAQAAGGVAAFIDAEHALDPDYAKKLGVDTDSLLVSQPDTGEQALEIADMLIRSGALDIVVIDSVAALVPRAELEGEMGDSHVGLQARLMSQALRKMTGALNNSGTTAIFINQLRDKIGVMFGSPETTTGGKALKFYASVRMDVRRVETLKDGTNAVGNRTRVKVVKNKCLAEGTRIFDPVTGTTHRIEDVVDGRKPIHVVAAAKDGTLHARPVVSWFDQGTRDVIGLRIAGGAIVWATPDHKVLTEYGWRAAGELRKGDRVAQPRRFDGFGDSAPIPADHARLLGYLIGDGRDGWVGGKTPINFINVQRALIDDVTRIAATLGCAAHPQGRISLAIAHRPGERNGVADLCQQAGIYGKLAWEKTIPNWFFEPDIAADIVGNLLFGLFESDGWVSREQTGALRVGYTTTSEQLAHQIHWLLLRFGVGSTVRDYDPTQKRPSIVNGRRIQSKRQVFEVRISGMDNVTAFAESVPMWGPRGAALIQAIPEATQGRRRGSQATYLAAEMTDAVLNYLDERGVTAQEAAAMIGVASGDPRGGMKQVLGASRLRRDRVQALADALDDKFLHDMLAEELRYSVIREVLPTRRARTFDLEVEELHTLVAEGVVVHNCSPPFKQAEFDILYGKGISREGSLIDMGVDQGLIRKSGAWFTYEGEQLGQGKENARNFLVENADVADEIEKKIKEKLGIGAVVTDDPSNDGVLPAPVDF

[13] = Luminescence Cell-Based Dose Response HTS to Identify Activators of Luciferase Translation or Activity in H4 […] Cells. [Related pubchem assays: 1829 (Project Summary), 1814 (Primary HTS)]; format: functional
[14] = biological target: G-protein coupled receptor 55 (Homo sapiens, UniProt Q9Y2T6); experiment: GPR55 antagonists blocking LPI-driven arrestin recruitment, primary screen, imaging, U2OS, beta-arrestin-GFP, LPI agonist (AID 2013); format: functional;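 note: antagonist potency measured as reduced agonist-driven arrestin aggregation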
Chain of G-protein coupled receptor 55 (Q9Y2T6 whole entry): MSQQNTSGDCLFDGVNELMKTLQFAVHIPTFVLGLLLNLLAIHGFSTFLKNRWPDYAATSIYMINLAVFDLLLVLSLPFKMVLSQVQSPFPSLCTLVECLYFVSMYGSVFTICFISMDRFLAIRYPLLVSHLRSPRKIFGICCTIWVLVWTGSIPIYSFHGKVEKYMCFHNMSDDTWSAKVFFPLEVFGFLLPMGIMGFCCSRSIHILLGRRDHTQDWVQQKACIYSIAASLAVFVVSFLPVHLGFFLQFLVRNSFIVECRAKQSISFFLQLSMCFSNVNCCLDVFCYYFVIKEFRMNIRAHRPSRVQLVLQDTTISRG

H4 = experiment: Luminescence Cell-Based Dose Response HTS to Identify Activators of 5'UTR Stem-Loop Driven Prion Protein mRNA Translation in H4 Neuroglioblastoma Cells. [Related pubchem assays: 1829 (Project Summary), 1814 (Primary HTS)]; format: functional; settings: Homo sapiens
HEK293 [15] = experiment: cells; settings: Homo sapiens; remark: listed apart in the source
[16] = Luminescence Cell-Based Dose Confirmation HTS to Identify Activators of 5'UTR Stem-Loop Driven Alpha-Synuclein mRNA Translation in H4 Neuroglioblastoma Cells. [Related pubchem assays: 1829 (Project Summary), 1814 (Primary HTS)]; format: functional
[17] = biological target: T2, Replicative DNA helicase DnaB (Mycobacterium tuberculosis, UniProt P9WMR3); experiment: DnaB intein splicing inhibitors, dose response, biochemical, cell-free fluorescence (AID 449749); format: functional
T2 sequence (P9WMR3 whole entry): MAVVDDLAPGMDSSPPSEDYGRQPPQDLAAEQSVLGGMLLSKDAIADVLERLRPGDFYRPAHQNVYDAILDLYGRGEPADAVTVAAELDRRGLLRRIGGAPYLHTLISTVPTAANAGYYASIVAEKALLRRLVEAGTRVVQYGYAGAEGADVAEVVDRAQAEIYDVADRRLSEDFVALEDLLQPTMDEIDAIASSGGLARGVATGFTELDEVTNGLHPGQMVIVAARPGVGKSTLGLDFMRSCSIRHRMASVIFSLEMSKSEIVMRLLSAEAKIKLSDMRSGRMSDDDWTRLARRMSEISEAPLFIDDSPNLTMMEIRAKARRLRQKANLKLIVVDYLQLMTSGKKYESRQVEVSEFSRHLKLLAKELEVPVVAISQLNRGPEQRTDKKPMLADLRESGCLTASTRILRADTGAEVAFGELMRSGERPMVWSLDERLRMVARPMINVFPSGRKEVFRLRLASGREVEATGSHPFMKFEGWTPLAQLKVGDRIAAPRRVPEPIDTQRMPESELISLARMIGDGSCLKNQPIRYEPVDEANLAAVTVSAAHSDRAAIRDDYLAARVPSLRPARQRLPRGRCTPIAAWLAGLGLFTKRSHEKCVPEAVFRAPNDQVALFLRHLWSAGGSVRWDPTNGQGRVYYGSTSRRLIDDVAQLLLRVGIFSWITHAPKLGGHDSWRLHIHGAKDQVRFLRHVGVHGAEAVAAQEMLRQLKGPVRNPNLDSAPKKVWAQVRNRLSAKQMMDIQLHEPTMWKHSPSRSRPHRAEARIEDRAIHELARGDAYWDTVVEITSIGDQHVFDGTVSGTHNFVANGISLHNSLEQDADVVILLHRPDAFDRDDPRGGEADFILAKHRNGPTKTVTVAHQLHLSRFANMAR

## C[C@@H]1CN([C@@H](C)CO)C(=O)c2cc(NC(=O)c3ccncc3)ccc2O[C@@H](C)CCCCO[C@H]1CN(C)C(=O)Nc1cccc2ccccc12
[1]
  AC50: 9.74 µM (active)
[2]
  AC50: 17.1 µM (active)
[3]
  AC50: 14.3 µM (active)
[4]
  AC50: 17.1 µM (active)
[5]
  AC50: 2.91 µM (active)

## C[C@@H]1CCCCO[C@@H](CN(C)Cc2ccc(Cl)c(Cl)c2)[C@H](C)CN([C@@H](C)CO)C(=O)c2cc(NC(=O)CCC(F)(F)F)ccc2O1
[6]
  AC50: 21.9 µM (active)
[7]
  AC50: 16.1 µM (active)
[8]
  AC50: 23.4 µM (active)
Paired box protein Pax-8
  AC50: 9.32 µM (active)
[9]
  AC50: 17.1 µM (active)
[10]
  AC50: 27.3 µM (active)

## O=C(NC1CCCC1)C1CC1c1ccccc1 (centres undefined)
fMet-Leu-Phe receptor
  Ki: > 66.7 µM (inactive)

## C[C@H](CO)N1C[C@H](C)[C@H](CN(C)C(=O)Nc2cccc3ccccc23)OCCCC[C@H](C)Oc2ccc(NC(=O)NC3CCCCC3)cc2C1=O
[1]
  AC50: 45.6 µM (active)
[5]
  AC50: 4.13 µM (active)

## Cn1cc(Cl)c(C(=O)NN=C(S)Nc2cccc(Cl)c2)n1
[11]
  IC50: > 122 µM (inactive)

## CCOC(=O)c1c(CSC(=N)N)n(-c2ccccc2)c2cc(Br)c(OC(C)=O)cc12
HEK293 [12]
  EC50: > 59.6 µM (inactive)
Protein RecA
  EC50: 9.76 µM (active)
[13]
  EC50: 9.69 µM (active)
[14]
  IC50: 3.23 µM (active)
H4
  EC50: > 120 µM (not active)
HEK293 [15]
  EC50: > 59.6 µM (inactive)
[16]
  EC50: > 120 µM (not active)
[17]
  AC50: 5.9 µM (active)
[11]
  IC50: > 122 µM (inactive)
